Experimental data: US8987264B2, “1,3,5-triazine derivatives of spiro bicyclic oxalamide-compounds for treatment of hepatitis C” (priority 2012, dated 2015)
Where two headings read alike, the source gives them in different places.

Tested on: HCV pseudoparticles, genotype 1a (H77C) E1 and E2 envelope glycoproteins
Test: HCV pseudoparticle infection assay (luciferase reporter, Huh7 cells)
Type: cell-based
Conditions: Hepatitis C virus, Huh-7, 48 h, read-out: EC50 (nM) 1a (H77C), HCV pseudoparticles genotype 1a (H77C), Huh7 cells, luciferase 2 days after infection

Row | SMILES | EC50 (class symbol) | EC50 (numeric value)
1 | Cc1cc(NC(=O)C(=O)N2CCC3(CCN(C(=O)c4ccc(Nc5nc(NC6(c7ccc(Cl)cc7)CC6)nc(OCC(F)(F)F)n5)cc4)C3)C2)no1 (stereo not drawn) [Compound 1004] | 0.01 to 10 nM | –
2 | O=C(NCc1ccc(F)cc1)C(=O)N1CCC2(CCN(C(=O)c3ccc(Nc4nc(NC5(c6ccc(Cl)cc6)CC5)nc(OCC(F)(F)F)n4)cc3)C2)C1 (stereo not drawn) [Compound 1006] | 0.01 to 10 nM | –
3 | CC(C)CNC(=O)C(=O)N1CCC2(CCN(C(=O)c3ccc(Nc4nc(NC5(c6ccc(Cl)cc6)CC5)nc(OCC(F)(F)F)n4)cc3)C2)C1 (stereo not drawn) [Compound 1014] | 0.01 to 10 nM | –
4 | O=C(Nc1ccc(F)cc1)C(=O)N1CCC2(CCN(C(=O)c3ccc(Nc4nc(NC5(c6ccc(Cl)cc6)CC5)nc(OCC(F)(F)F)n4)cc3)C2)C1 (stereo not drawn) [Compound 1003] | 0.01 to 10 nM | –
5 | Cc1nnc(NC(=O)C(=O)N2CCC3(CCN(C(=O)c4ccc(Nc5nc(NC6(c7ccc(Cl)cc7)CC6)nc(OCC(F)(F)F)n5)cc4)C3)C2)s1 (stereo not drawn) [Compound 1015] | 0.01 to 10 nM | –
6 | O=C(Nc1nccs1)C(=O)N1CCC2(CCN(C(=O)c3ccc(Nc4nc(NC5(c6ccc(Cl)cc6)CC5)nc(OCC(F)(F)F)n4)cc3)C2)C1 (stereo not drawn) [Compound 1012] | 0.01 to 10 nM | –
7 | O=C(Nc1cc(F)cc(F)c1)C(=O)N1CCC2(CCN(C(=O)c3ccc(Nc4nc(NC5(c6ccc(Cl)cc6)CC5)nc(OCC(F)(F)F)n4)cc3)C2)C1 (stereo not drawn) [Compound 1009] | 0.01 to 10 nM | –
8 | O=C(NC1CCCCC1)C(=O)N1CCC2(CCN(C(=O)c3ccc(Nc4nc(NC5(c6ccc(Cl)cc6)CC5)nc(OCC(F)(F)F)n4)cc3)C2)C1 (stereo not drawn) [Compound 1010] | 0.01 to 10 nM | –
9 | O=C(C(=O)N1CCC2(CCN(C(=O)c3ccc(Nc4nc(NC5(c6ccc(Cl)cc6)CC5)nc(OCC(F)(F)F)n4)cc3)C2)C1)N1CCCCC1 (stereo not drawn) [Compound 1011] | 0.01 to 10 nM | –
10 | O=C(Nc1ccccc1)C(=O)N1CCC2(CCN(C(=O)c3ccc(Nc4nc(NC5(c6ccc(Cl)cc6)CC5)nc(OCC(F)(F)F)n4)cc3)C2)C1 (stereo not drawn) [Compound 1005] | 0.01 to 10 nM | –
11 | O=C(Nc1cccc(F)c1)C(=O)N1CCC2(CCN(C(=O)c3ccc(Nc4nc(NC5(c6ccc(Cl)cc6)CC5)nc(OCC(F)(F)F)n4)cc3)C2)C1 (stereo not drawn) [Compound 1002] | 0.01 to 10 nM | –
12 | O=C(Nc1ccc(F)cc1F)C(=O)N1CCC2(CCN(C(=O)c3ccc(Nc4nc(NC5(c6ccc(Cl)cc6)CC5)nc(OCC(F)(F)F)n4)cc3)C2)C1 (stereo not drawn) [Compound 1008] | 0.01 to 10 nM | –
13 | NC(=O)C(=O)N1CCC2(CCN(C(=O)c3ccc(Nc4nc(NC5(c6ccc(Cl)cc6)CC5)nc(OCC(F)(F)F)n4)cc3)C2)C1 (stereo not drawn) [Compound 1001] | 0.01 to 10 nM | 1.64 nM
14 | Cc1ccc(NC(=O)C(=O)N2CCC3(CCN(C(=O)c4ccc(Nc5nc(NC6(c7ccc(Cl)cc7)CC6)nc(OCC(F)(F)F)n5)cc4)C3)C2)cc1 (stereo not drawn) [Compound 1007] | 0.01 to 10 nM | 0.255 nM
15 | O=C(C(=O)N1CCC2(CCN(C(=O)c3ccc(Nc4nc(NC5(c6ccc(Cl)cc6)CC5)nc(OCC(F)(F)F)n4)cc3)C2)C1)N1CCc2ccccc2C1 (stereo not drawn) [Compound 1013] | 0.01 to 10 nM | 4.86 nM
